Laboratory results from patent US11434227B2, “Broad spectrum antibacterial activity of novel bisbenzimidazoles targeting topoisomerase IA and the synergistic composition of bisbenzimidazole with efflux pump inhibitors against pathogenic bacteria” (Jawaharlal Nehru University (JNU), priority 2016, dated 2022).
≈ marks a conversion by molar mass, not a printed value. Like-named read-outs stand apart in the source and are kept apart here.

Tests used:
E. coli K12 mutant ΔompF = assay: Susceptibility of E. coli K12 and mutants (MIC90); conditions: Escherichia coli
Procedure: (§1) MICs were determined by the broth microdilution method according to CLSI methods (Clinical and Laboratory Standards Institute, 2005). Inoculants were incubated at 37° C. on cation adjusted Mueller Hinton (MH) Broth for 18 to 24 h. Compound were dissolved in media to 10 doubling dilutions from 128 to 0.125 μg/mL. All the bacterial strains were grown in 96 well plate with low evaporation lid (Falcon, Becton Dickinson) in presence of derivatives of benzimidazoles at 0.125, 0.25, 0.5, 1, 2, 4, 8, 16, 32, 64, 128, 256 μg/mL concentrations. […] Plates were read by Tecan Micro-plate Reader at 600 nm.

E. coli K12 mutant ΔompC = assay: Susceptibility of E. coli K12 and mutants (MIC90); conditions: Escherichia coli
Procedure: as §1

Enterococcus sp. (2105) = assay: Susceptibility (MIC50/MIC90), broth microdilution
Procedure: as §1

[1] = system: Acinetobacter baumannii (AB312); assay: Susceptibility (MIC50/MIC90), broth microdilution
Procedure: as §1

Escherichia coli 385 = assay: Susceptibility (MIC50/MIC90), broth microdilution
Procedure: as §1

[2] = system: E. coli K12 mutant ΔTopIB; assay: Susceptibility of E. coli K12 and mutants (MIC90); conditions: Escherichia coli
Procedure: as §1

Enterococcus sp. (1367) = assay: Susceptibility (MIC50/MIC90), broth microdilution
Procedure: as §1

[3] = system: Salmonella typhimurium (MTCC 1251); assay: Susceptibility (MIC50/MIC90), broth microdilution; conditions: Salmonella enterica
Procedure: as §1

Enterococcus sp. (1121) = assay: Susceptibility (MIC50/MIC90), broth microdilution
Procedure: as §1

Staphylococcus sp. (976) = assay: Susceptibility (MIC50/MIC90), broth microdilution
Procedure: as §1

[4] = system: E. coli K12 mutant ΔTopIA; assay: Susceptibility of E. coli K12 and mutants (MIC90); conditions: Escherichia coli
Procedure: as §1

[5] = system: Klebsiella planticola (K589); assay: Susceptibility (MIC50/MIC90), broth microdilution
Procedure: as §1

[6] = system: Mycobacterium tuberculosis H37Ra (avirulent); assay: Susceptibility of Mycobacterium tuberculosis strains (MIC90); format: cell-based
[7] = system: Pseudomonas aeruginosa (Ps162); assay: Susceptibility (MIC50/MIC90), broth microdilution
Procedure: as §1

M. tuberculosis = assay: Effect on virulent and avirulent strains of M. tuberculosis; format: cell-based, Mycobacterium tuberculosis
S. aureus 1016 = assay: Neutropenic thigh infection model; format: in vivo, Balb/c mice
Excerpt: Craig, was used in this study.

[8] = system: Klebsiella planticola (K1164); assay: Susceptibility (MIC50/MIC90), broth microdilution
Procedure: as §1

E. coli K12 = assay: Susceptibility of E. coli K12 and mutants (MIC90); conditions: Escherichia coli
Procedure: as §1

[9] = system: Klebsiella planticola (K235); assay: Susceptibility (MIC50/MIC90), broth microdilution
Procedure: as §1

Enterococcus sp.(1150) = assay: Susceptibility (MIC50/MIC90), broth microdilution
Procedure: as §1

[10] = system: Pseudomonas aeruginosa (MTCC 366); assay: Susceptibility (MIC50/MIC90), broth microdilution; conditions: MTCC366
Procedure: as §1

Staphylococcus sp. (982) = assay: Susceptibility (MIC50/MIC90), broth microdilution
Procedure: as §1

[11] = system: Salmonella typhimurium (St412); assay: Susceptibility (MIC50/MIC90), broth microdilution; conditions: Salmonella enterica
Procedure: as §1

[12] = system: Mycobacterium tuberculosis H37Rv (virulent); assay: Susceptibility of Mycobacterium tuberculosis strains (MIC90); format: cell-based
[13] = system: Klebsiella planticola (MTCC 2272); assay: Susceptibility (MIC50/MIC90), broth microdilution; conditions: MTCC2272
Procedure: as §1

E. coli K12 mutant ΔemrA = assay: Susceptibility of E. coli K12 and mutants (MIC90); conditions: Escherichia coli
Procedure: as §1

Escherichia coli 392 = assay: Susceptibility (MIC50/MIC90), broth microdilution
Procedure: as §1

E. coli K12 mutant ΔacrA = assay: Susceptibility of E. coli K12 and mutants (MIC90); conditions: Escherichia coli
Procedure: as §1

[14] = system: Staphylococcus sp. (1016); assay: Susceptibility (MIC50/MIC90), broth microdilution
Procedure: as §1

E. coli K12 mutant ΔtolC = assay: Susceptibility of E. coli K12 and mutants (MIC90); conditions: Escherichia coli
Procedure: as §1

E. coli ATCC 25922 = assay: Neutropenic thigh infection model
Procedure: The neutropenic mice thigh infection model, fully described by. Craig, was used in this study. Female Balb/c mice (6 mice per dosing group) weighing 20-25 g were rendered neutropenic with 2 intraperitoneal injections of cyclophosphamide (150 mg/kg of body weight 4 days prior to bacterial inoculation and 100 mg/kg 1 day before inoculation) 2 h prior to bacterial inoculation. […] Bacteria were injected into the right thigh of each mouse at time zero. […] Neutropenia was defined as an absolute neutrophil count of 500 polymorphonuclear leukocytes/cm^3 of blood. The bacterial suspension was diluted to a concentration of 10^6 CFU/mL with normal saline. Then, 0.1 mL of the bacterial suspension was injected into each posterior thigh muscle 2 h after the second dose of cyclophosphamide was administered. […] Twenty-four hours after drug treatment was begun, the mice were humanely sacrificed. Right thigh muscles from each mouse were aseptically collected, homogenized and serially diluted 1:10 in phosphate buffer saline, and processed for quantitative cultures.

[15] = system: isogenic efflux deleted strains; assay: Susceptibility of isogenic efflux deleted strains versus wild type; format: cell-based, Escherichia coli; conditions: in comparison to wild type strains
Enterococcus sp. (432) = assay: Susceptibility (MIC50/MIC90), broth microdilution
Procedure: as §1

[16] = system: Pseudomonas aeruginosa (MTCC1688); assay: Susceptibility (MIC50/MIC90), broth microdilution
Procedure: as §1

[17] = system: Shigella flexineri (MTCC1457); assay: Susceptibility (MIC50/MIC90), broth microdilution; format: cell-based
[18] = system: Acinetobacter baumannii (MTCC1920); assay: Susceptibility (MIC50/MIC90), broth microdilution
Procedure: as §1

[19] = system: Escherichia coli (ATCC 25922); assay: Susceptibility (MIC, PAE, MBC), broth microdilution
Procedure: as §1

[20] = system: Acinetobacter baumannii (AB387); assay: Susceptibility (MIC50/MIC90), broth microdilution
Procedure: as §1

Enterococcus sp. (1365) = assay: Susceptibility (MIC50/MIC90), broth microdilution
Procedure: as §1

[21] = Neutropenic thigh, ATCC 25922, single i.v. bolus, 24 h

Structure (SMILES): CCCCN1CCN(c2ccc3nc(-c4ccc5[nH]c(-c6ccc(OC)c(OC)c6)nc5c4)[nH]c3c2)CC1 [SP12a, 5-(4-butylpiperazin-1-yl)-2′-(3,4-dimethoxyphenyl)-1H,1′H-2,5′-bibenzo[d]imidazole]
- MIC90 (E. coli K12 mutant ΔompF): 6.5 µg/mL (≈ 12.7 µM)
- MIC90 (E. coli K12 mutant ΔompC): 6.7 µg/mL (≈ 13.1 µM)
- MIC50 (Enterococcus sp. (2105)): 4.32 µg/mL (≈ 8.46 µM)
- MIC90 (Enterococcus sp. (2105)): 12.2 µg/mL (≈ 23.9 µM)
- MIC50 [1]: 4.6 µg/mL (≈ 9.01 µM)
- MIC90 [1]: 12.9 µg/mL (≈ 25.3 µM)
- MIC50 (Escherichia coli 385): 3.9 µg/mL (≈ 7.64 µM)
- MIC90 (Escherichia coli 385): 6.5 µg/mL (≈ 12.7 µM)
- MIC90 [2]: 12.8 µg/mL (≈ 25.1 µM)
- MIC50 (Enterococcus sp. (1367)): < 0.25 µg/mL
- MIC90 (Enterococcus sp. (1367)): < 0.25 µg/mL
- MIC50 [3]: < 0.25 µg/mL
- MIC90 [3]: 0.25 µg/mL (≈ 0.49 µM)
- MIC50 (Enterococcus sp. (1121)): < 0.25 µg/mL
- MIC90 (Enterococcus sp. (1121)): 0.88 µg/mL (≈ 1.72 µM)
- MIC50 (Staphylococcus sp. (976)): < 0.25 µg/mL
- MIC90 (Staphylococcus sp. (976)): 0.4 µg/mL (≈ 0.783 µM)
- MIC90 [4]: 3.9 µg/mL (≈ 7.64 µM)
- MIC50 [5]: 10.3 µg/mL (≈ 20.2 µM)
- MIC90 [5]: 29.4 µg/mL (≈ 57.6 µM)
- MIC90 [6]: 7.3 µg/mL (≈ 14.3 µM)
- MIC50 [7]: 5.22 µg/mL (≈ 10.2 µM)
- MIC90 [7]: > 128 µg/mL
- effect on M. tuberculosis (M. tuberculosis): effective against M. tuberculosis
- Dose at 1.7 log reduction (S. aureus 1016; Neutropenic thigh, S. aureus 1016, single i.v. bolus, 24 h): 4 mg/kg bw/day
- bacterial load reduction (S. aureus 1016; balb/c mice neutropenia thigh model, Gram positive S1016): significant bacterial load reduction
- MIC50 [8]: > 128 µg/mL
- MIC90 [8]: 128 µg/mL (≈ 251 µM)
- MIC90 (E. coli K12): 16 µg/mL (≈ 31.3 µM)
- MIC50 [9]: 3.1 µg/mL (≈ 6.07 µM)
- MIC90 [9]: 25.9 µg/mL (≈ 50.7 µM)
- MIC50 (Enterococcus sp.(1150)): < 0.25 µg/mL
- MIC90 (Enterococcus sp.(1150)): < 0.25 µg/mL
- MIC50 [10]: < 0.25 µg/mL
- MIC90 [10]: < 0.25 µg/mL
- MIC50 (Staphylococcus sp. (982)): 0.5 µg/mL (≈ 0.979 µM)
- MIC90 (Staphylococcus sp. (982)): 1 µg/mL (≈ 1.96 µM)
- MIC50 [11]: < 0.25 µg/mL
- MIC90 [11]: 0.25 µg/mL (≈ 0.49 µM)
- MIC90 [12]: 14.6 µg/mL (≈ 28.6 µM)
- MIC50 [13]: 128 µg/mL (≈ 251 µM)
- MIC90 [13]: 128 µg/mL (≈ 251 µM)
- MIC90 (E. coli K12 mutant ΔemrA): 7.9 µg/mL (≈ 15.5 µM)
- MIC50 (Escherichia coli 392): 1.5 µg/mL (≈ 2.94 µM)
- MIC90 (Escherichia coli 392): 13.7 µg/mL (≈ 26.8 µM)
- MIC90 (E. coli K12 mutant ΔacrA): 3.4 µg/mL (≈ 6.66 µM)
- MIC90 [14]: 5.7 ± 0.046 µg/mL (≈ 11.2 µM)
- MIC50 ([14]; Staphylococcus): 1.2 µg/mL (≈ 2.35 µM)
- MIC90 ([14]; Staphylococcus): 5.7 µg/mL (≈ 11.2 µM)
- MIC90 (E. coli K12 mutant ΔtolC): 0.7 µg/mL (≈ 1.37 µM)
- Dose at 0.8 log reduction (E. coli ATCC 25922; [21]): 2 mg/kg bw/day
- Dose at 3.4 log reduction (E. coli ATCC 25922; [21]): 4 mg/kg bw/day
- bacterial load reduction (E. coli ATCC 25922; balb/c mice neutropenia thigh model, gram negative ATCC25922): significant bacterial load reduction
- sensitisation of efflux deleted strains [15]: more sensitised
- MIC50 (Enterococcus sp. (432)): > 128 µg/mL
- MIC90 (Enterococcus sp. (432)): > 128 µg/mL
- MIC50 [16]: 128 µg/mL (≈ 251 µM)
- MIC90 [16]: 128 µg/mL (≈ 251 µM)
- MIC50 [17]: 0.24 µg/mL (≈ 0.47 µM)
- MIC90 [17]: 0.8 µg/mL (≈ 1.57 µM)
- MIC50 [18]: 128 µg/mL (≈ 251 µM)
- MIC90 [18]: 128 µg/mL (≈ 251 µM)
- MIC90 ([19]; ATCC 25922, Table 6): 7.3 ± 0.024 µg/mL (≈ 14.3 µM)
- MIC50 ([19]; Escherichia coli, ATCC25922): 3 µg/mL (≈ 5.87 µM)
- MIC90 ([19]; Escherichia coli, ATCC25922): 7.3 µg/mL (≈ 14.3 µM)
- MIC50 [20]: 3.6 µg/mL (≈ 7.05 µM)
- MIC90 [20]: 10.8 µg/mL (≈ 21.1 µM)
- MIC50 (Enterococcus sp. (1365)): < 0.25 µg/mL
- MIC90 (Enterococcus sp. (1365)): < 0.25 µg/mL
